pIC50: −log10 of the molar value. Structures can show the parent of a compound that is named as a salt.
Key:
Assay type in all cases: cell-based
[1] = test system: HeLa cells; test: CellTiter-Glo luminescent cell viability (cytotoxicity) assay; conditions: 10 μM test compound, inhibition of luminescence compared to control cells; for inhibition at 10 µM: Homo sapiens, HeLa, 48 h, read-out: Activity (PCT_INHIB @ 10 μM)
Procedure: Cytotoxicity was assessed using Promega's CellTiter-Glo® luminescent cell viability assay (Promega Corporation, Madison, Wis., USA) as described in Promega Technical Bulletin TB288, revised August 2008. The assay was performed in HeLa cells at a maximum concentration tested of 10 μM of test compound. This assay measures the amount of adenosine triphosphate (ATP) present as a way of quantifying the presence and degree of metabolic activity in cell cultures.
Viable Hela cells were plated at a density of 3000 cells/well in 96 wells in black, clear bottom plates. Cells were allowed to attach to the plate by incubating overnight at 37° C. Test compounds were diluted in DMSO then further diluted in 10% FBS media. Media was removed from the cell plates and 50 μL of the solution was added to each well manually with the exception of the control well, which contained the same volume of 10% FBS media which includes 1% DMSO. Cells were incubated in the presence of compound undisturbed for 48 hours at 37° C. After the 48 hour compound exposure, 50 μL of the pCellTiter Glo® reagent was added. The cell plates were agitated on a shaker for 2 minutes to help lyse the cells. The plate was covered and read for luminescence.
Percent inhibition was calculated as follows: PCT_INHIB=100*[(U−T)/U] Where U represents the Luminescence of wells containing untreated cells and
T represents the Luminescence of wells containing compound-treated cells

[2] = test system: H146 cell line; test: MTS tetrazolium assay (proliferation, non-adherent cell line); conditions: H146 cells, 5 days; for pIC50: 50% inhibition of cell proliferation; for IC90: 90% inhibition of cell proliferation
Procedure: Proliferation was evaluated in a non-adherent cell line using the MTS tetrazolium dye assay according to the procedure of Malich and colleagues (G. Malich et al. Toxicology 1997, 124, 179-192). The cell line used was H146 (ATCC Number HTB-173™). The cells were grown in RPMI 1640 medium supplemented with 2.5% fetal bovine serum.
Cells were seeded into clear 96 well tissue culture treated plates at 20,000 cells per well. Plates were incubated overnight at 37° C. in a humidified incubator with 5% CO2. The next day, test compounds were serially diluted to three times the final concentration in the appropriate growth medium. 50 μL of a 3× dilution of drug was added per well for a final volume of 150 uL/well. […] 50 μL of 0.75% DMSO in growth media was added per well for a final volume of 150 uL/well. The plates were returned to the incubator. After 5 days CellTiter 96® AQueous One Solution (Promega Corporation, Madison, Wis., USA) (25 μL/well) was added to each well and the plates were placed back in the incubator for 2-3 h. The absorbance at 490 nm was measured for each well using a plate reader. The concentrations of compounds leading to 50% and 90% inhibition of cell proliferation were determined by using the curve-fitting functionality of Microsoft Excel from plots of the logarithm of the concentration versus percent inhibition. These concentrations represent the IC50 and IC90 values, respectively.

[3] = test system: H196, a small cell lung cancer cell line; test: MTT tetrazolium dye proliferation assay; conditions: H196 cells, 5 days; for pIC50: 50% inhibition of cell proliferation; for IC90: 90% inhibition of cell proliferation
Procedure: Proliferation was evaluated in an adherent cell line by the tetrazolium dye assay according to the procedure of Denizot and Lang (F. Denizot and R. Lang J. Immunol. Methods 1986, 89, 271-277). The cell line used was H196, a small cell lung cancer cell line obtained from the ATCC (ATCC Number CRL-5823™). The cells were grown in RPMI 1640 medium supplemented with 2.5% fetal bovine serum.
Cells were seeded into clear 96 well tissue culture treated plates at 20,000 cells per well. Plates were incubated overnight at 37° C. in a humidified incubator with 5% CO2. The next day, test compounds were serially diluted to three times the final concentration in the appropriate growth medium. 50 μL of a 3× dilution of drug was added per well for a final volume of 150 uL/well. Six concentrations were tested for each compound ranging from 10 μM to 30 nM. […] 50 μL of 0.75% DMSO in growth media was added per well for a final volume of 150 uL/well. The plates were returned to the incubator and, after 5 days, the plates were analyzed as follows: 3-(4,5-dimethylthiazol-2-yl)-2,5-diphenyl-2H-tetrazolium bromide (thiazolyl blue; MTT; Sigma) was added to each well to yield a final concentration of 1.25 mg/mL. Plates were returned to the incubator for 3 hours. The MTT-containing medium was removed and the resulting formazan metabolite was solubilized in 100% ethanol while shaking for 10 minutes at room temperature. Absorbances were read in a plate reader at a wavelength of 570 nm with a 660 nm reference. The concentrations of compounds leading to 50% and 90% inhibition of cell proliferation were determined by using the curve-fitting functionality of Microsoft Excel from plots of the logarithm of the concentration versus percent inhibition. These concentrations represent the IC50 and IC90 values, respectively.

pIC50 [2]	IC90 [2]	pIC50 [3]	IC90 [3]	pIC50 ([3]; NCI-H196, 120 h)	IC90 ([3]; NCI-H196, 120 h)	SMILES	inhibition at 10 µM [1]	Activity (PCT_INHIB @ 10 μM) ([1]; 48 hours, 10 µM)
5.80	3100 nM	5.85	1900 nM	–	–	COc1ccc(Cl)c(CN(Cc2cccc(CN3C(C(=O)N[C@H]4C[C@H]5C[C@@H]([C@@H]4C)C5(C)C)CCS3(=O)=O)c2)[C@H](CN(C)C)CC(C)(C)C)c1F (single isomer, unassigned; epimer 1) [Example 25]	96%	–
6.15	1200 nM	–	–	5.89	1800 nM	COc1ccc(Cl)c(CN(Cc2cccc(CN3C(C(=O)N[C@H]4C[C@H]5C[C@@H]([C@@H]4C)C5(C)C)CCS3(=O)=O)c2)[C@H](CN(C)C)CC(C)(C)C)c1F (single isomer, unassigned; epimer 2) [Example 26]	–	97%
–	–	–	–	–	–	COc1ccc(Cl)c(CN(Cc2cccc(CN3C(C(=O)NC45CC6CC(CC(C6)C4)C5)CCS3(=O)=O)c2)[C@H](CN(C)C)CC(C)(C)C)c1F (stereo partly drawn) [Example 20, 2-(3-{[(6-Chloro-2-fluoro-3-methoxy-benzyl)-((S)-1-dimethylaminomethyl-3,3-dimethyl-butyl)-amino]-methyl}-benzyl)-1,1-dioxo-1λ^6-isothizolidine-3-carboxylic acid adamantan-1-ylamide]	95%	–
–	–	–	–	–	–	C[C@@H]1[C@@H](NC(=O)C2CCS(=O)(=O)N2Cc2cccc(CN(Cc3cccc4c3OCO4)[C@H](CN(C)C)CC(C)(C)C)c2)C[C@H]2C[C@@H]1C2(C)C (stereo partly drawn) [Example 17, 2-(3-{[Benzo[1,3]dioxol-4-ylmethyl-((S)-1-dimethylaminomethyl-3,3-dimethyl-butyl)-amino]-methyl}-benzyl)-1,1-dioxo-1λ^6-isothiazolidine-3-carboxylic acid((1S,2S,3S,5R)-2,6,6-trimethyl-bicyclo[3.1.1]hept-3-yl)-amide trifluoroacetate salt]	96%	–
